Source: patent publication US5786517A, “Metal-ligand complex catalyzed processes” (Union Carbide Chemicals & Plastics Technology Corporation, priority 1996, dated 1998)

Legend:
[1] = Extraction of base from butyraldehyde into equimolar aqueous H3PO3 (Example 5, Table A); type: physicochemical
Method: The following series of experiments were performed in order to determine the relationship of the pKa of a base to the effectiveness of the base to remain in the organic phase upon contact with an equimolar aqueous acid solution. In all cases the experiments were performed under nitrogen, unless otherwise specified.
Solutions were prepared by dissolving a quantity of acid or base in solvent so that the final concentration was equal to 0.1 moles/liter. The 1×10^-3 moles/liter solutions were prepared by taking an aliquot of the 0.1 moles/liter solution and diluting to the specified concentration. The 1×10^-5 moles/liter solutions were prepared in the same manner as the 1×10^-3 moles/liter solution with the modification of using an aliquot of the 1×10^-3 moles/liter solution in place of the 0.1 moles/liter solution.
In each extraction experiment, 5 milliliters of base solution in butyraldehyde was added to a clean, dry vial. To this vial was added 5 milliliters of equimolar H3 PO3 solution. The resulting mixture was rapidly shaken for several minutes and then allowed to phase separate. A 1 milliliter aliquot of the aqueous layer was then transferred to a clean, dry vial. To this vial was added 1 milliliter of pH 7 sodium/potassium phosphate buffer and 0.1 milliliter of Tergitol® 15-S-9 surfactant. The solution was shaken vigorously, and an aliquot was analyzed by high performance liquid chromatography for base content. The amount of base was then compared with a dichloromethane solution at the initial concentration. The partition coefficients calculated are for partitioning of the base from the organic phase to the water phase and is defined as K=amount of base in the water phase/amount of base in the organic phase.

[2] = Stability of Ligand F in rhodium-containing butyraldehyde solution by HPLC (Examples 2-4)
[3] = Partition of hydroxy butyl phosphonic acid between butyraldehyde and water (Example 1); type: physicochemical
Method: Into a glass vessel was added a stock solution of 536 parts per million of hydroxy butyl phosphonic acid in butyraldehyde. This solution was contacted with water in a weight ratio of 1.18:1 grams water to grams aldehyde/acid stock solution. The aldehyde and water phase were contacted thoroughly to allow the separation of acid between the organic and the aqueous layer to reach equilibrium. The aldehyde phase was analyzed for hydroxy butyl phosphonic acid by ion chromatography after contact with the water giving 52.3 parts per million of hydroxy butyl phosphonic acid. The water phase was also analyzed by ion chromatography for the acid. The water phase contained 414 parts per million of hydroxy butyl phosphonic acid. The partition coefficient between the water and the butyraldehyde phase was 414/52.3 or 7.92.

[4] = base 1 × 10^-3 moles/liter in butyraldehyde, H3PO3 1 × 10^-3 moles/liter
[5] = base 1 × 10^-5 moles/liter in butyraldehyde, H3PO3 1 × 10^-5 moles/liter
[6] = 536 ppm stock in butyraldehyde, 1.18:1 grams water to grams aldehyde/acid stock, ion chromatography

Compound	K (amount of base in the water phase/amount of base in the organic phase) [1, 4]	K (amount of base in the water phase/amount of base in the organic phase) [1, 5]	other results
CC(C)(C)c1cc(-c2cc(C(C)(C)C)cc(C(C)(C)C)c2Op2oc3ccccc3c3ccccc3o2)c(Op2oc3ccccc3c3ccccc3o2)c(C(C)(C)C)c1 [Ligand F]			concentration of Ligand F after 24 hours ([2]; 0.017 grams H3PO3 added to 12 gram solution, decreased from 0.39, 24 hours): 0.12 percent by weight; concentration of Ligand F after 72 hours ([2]; 0.017 grams H3PO3 added to 12 gram solution, initially 0.39, 72 hours): 0.04 percent by weight; change in concentration of Ligand F ([2]; after either 24 or 72 hours, 200 ppm rhodium, 0.39 wt% Ligand F in butyraldehyde, no added acid or benzimidazole): No change in the concentration
hydroxy butyl phosphonic acid			hydroxy butyl phosphonic acid in aldehyde phase after contact with water [3, 6]: 52.3 parts per million; hydroxy butyl phosphonic acid in water phase [3, 6]: 414 parts per million; partition coefficient between the water and the butyraldehyde phase ([3]; water/butyraldehyde, 414/52.3): 7.92

Further lines, with some results ahead:

K (amount of base in the water phase/amount of base in the organic phase) [1, 4]	K (amount of base in the water phase/amount of base in the organic phase) [1, 5]	Compound	other results
0.08	0.00	c1ccc2[nH]nnc2c1 [benzotriazole]	
0.43	1.20	c1ccc2ncccc2c1 [quinoline]	
0.02	0.00	O=C1CCCN1Cc1ccccc1 [1-benzyl-2-pyrrolidinone]	
